Test: Polymorph screening (slurry, anti-solvent addition, thermal cycling, slow evaporation, vapor diffusion, polymer-induced crystallization)
Type: physicochemical
Design: key: CL: Clear Liquid; HCl-1: Form 1 polymorph; HCl-2: Mixture of Polymorphs of Form 1 and Form 2
Description: Based on the approximate solubility of the product of Example 1 (1R HCl Form 1), screening experiments were conducted to find potential additional crystalline forms (polymorphs) using different screening techniques including, but not limited to, slow evaporation, slow cooling, anti-solvent addition, slurry at RT and 50 °C, temperature cycling, diffusion (solid and liquid), and polymer induced crystallization. The various procedures are outlined hereinbelow.
~40 mg of the product of Example 1 was slurried in 0.5-1.0 mL of different solvents in a 4.0 mL glass vial using a magnetic stirrer at RT. The solids in the slurry were stirred for 7 days.
~40 mg of the product of Example 1 was slurried in 0.5-1.0 mL of different solvents in a 4.0 mL glass vial using a magnetic stirrer at 50 °C. […]. The solids in the slurry were stirred for 3 days.
~40 mg of the product of Example 1 was dissolved in a solvent to create a saturated solution and an anti-solvent was added up to 10 volume ratios. The solids, if any, were collected.
~40 mg of the product of Example 1 was dissolved in a solvent, heated, and cooled following temperature cycles of 45 °C/1h→35 °C/4h→25 °C/4h→15 °C/4h→5 °C/4 h for 7 days. The obtained solids (if any) were collected after 7 days.
~40 mg of the product of Example 1 was dissolved in a solvent in a vial to create a saturated solution. The vial opening was covered with parafilm or aluminum foil (2-holes). The vials were kept at RT under the hood. The obtained solids (if any) were collected after 7 days.
~40 mg of the product of Example 1 was dissolved in a solvent to create a saturated solution in a 4.0 mL glass vial. The vial was placed in a 20 mL glass vial containing an anti-solvent. The obtained solids were collected after 7-10 days.
~40 mg of the product of Example 1 was kept in a 4.0 mL glass vial; this vial was placed in a 20 mL glass vial containing a solvent. The solids were collected after 7-10 days.
~40 mg of the product of Example 1 and 2.0 mg of the listed polymer were added to a solvent and kept stirring at RT. The solids in slurry or precipitated solids from solution were collected after 7 days.

CN[C@@]1(c2ccc(F)cc2)CCCCC1=O.Cl [1R HCl, (R)-2-(4-fluorophenyl)-2-(methylamino)cyclohexan-1-one hydrochloride]
Crystal Form (anti-solvent addition, DCM / 1,4-dioxane): CL
Crystal Form (anti-solvent addition, DCM / Acetone): HCl-1
Crystal Form (anti-solvent addition, DCM / CPME): HCl-1
Crystal Form (anti-solvent addition, DCM / EtOAc): HCl-1
Crystal Form (anti-solvent addition, DCM / Hexane): HCl-1
Crystal Form (anti-solvent addition, IPA / 1,4-dioxane): CL
Crystal Form (anti-solvent addition, IPA / Acetone): CL
Crystal Form (anti-solvent addition, IPA / Heptane): HCl-1
Crystal Form (anti-solvent addition, IPA / IPAc): HCl-2
Crystal Form (anti-solvent addition, IPA / MTBE): HCl-2
Crystal Form (anti-solvent addition, MeOH / Acetone): CL
Crystal Form (anti-solvent addition, MeOH / EtOAc): HCl-1
Crystal Form (anti-solvent addition, MeOH / MTBE): HCl-1
Crystal Form (anti-solvent addition, MeOH / THF): HCl-1
Crystal Form (anti-solvent addition, MeOH / Toluene): HCl-2
Crystal Form (anti-solvent addition, Water / 1,4-dioxane): CL
Crystal Form (anti-solvent addition, Water / ACN): CL
Crystal Form (anti-solvent addition, Water / THF): CL
Crystal Form (liquid vapor diffusion RT, DMSO / Acetone): CL
Crystal Form (liquid vapor diffusion RT, DMSO / EtOAc): CL
Crystal Form (liquid vapor diffusion RT, DMSO / Toluene): CL
Crystal Form (liquid vapor diffusion RT, MeOH / 2-MeTHF): CL
Crystal Form (liquid vapor diffusion RT, MeOH / IPAc): CL
Crystal Form (liquid vapor diffusion RT, MeOH / MTBE): CL
Crystal Form (liquid vapor diffusion RT, NMP / 1,4-dioxane): CL
Crystal Form (liquid vapor diffusion RT, NMP / Acetone): CL
Crystal Form (liquid vapor diffusion RT, NMP / MTBE): HCl-1
Crystal Form (polymer induced RT, ACN/H2O (9:1), PEO (Poloxamer 407)): gel
Crystal Form (polymer induced RT, Acetone/DCM (9:1), PVP): HCl-2
Crystal Form (polymer induced RT, Acetone/H2O (9:1), PVA): HCl-2
Crystal Form (polymer induced RT, EtOH/Heptane (3/7), HPMC): HCl-1
Crystal Form (polymer induced RT, MTBE/IPA (9:1), PVA): HCl-1
Crystal Form (polymer induced RT, MeOH/H2O (9:1), PVP): gel
Crystal Form (slow evaporation RT, 7 days, ACN): HCl-1
Crystal Form (slow evaporation RT, 7 days, Acetone): HCl-1
Crystal Form (slow evaporation RT, 7 days, DCM): HCl-2
Crystal Form (slow evaporation RT, 7 days, DMF): CL
Crystal Form (slow evaporation RT, 7 days, DMSO): CL
Crystal Form (slow evaporation RT, 7 days, MeOH): gel
Crystal Form (slow evaporation RT, 7 days, NMP): CL
Crystal Form (slow evaporation RT, 7 days, Water): HCl-1
Crystal Form (slow evaporation RT, 7 days, nPA): HCl-1
Crystal Form (slurry 50 °C, 3 days, 1,4-dioxane): HCl-1
Crystal Form (slurry 50 °C, 3 days, 2-MeTHF): HCl-1
Crystal Form (slurry 50 °C, 3 days, ACN): HCl-1
Crystal Form (slurry 50 °C, 3 days, Acetone/Toluene (1:1)): HCl-1
Crystal Form (slurry 50 °C, 3 days, EtOAc): HCl-1
Crystal Form (slurry 50 °C, 3 days, EtOH): HCl-1
Crystal Form (slurry 50 °C, 3 days, IPA): HCl-1
Crystal Form (slurry 50 °C, 3 days, IPAc): HCl-1
Crystal Form (slurry 50 °C, 3 days, MEK): HCl-1
Crystal Form (slurry 50 °C, 3 days, MIBK): HCl-1
Crystal Form (slurry 50 °C, 3 days, MTBE): HCl-1
Crystal Form (slurry 50 °C, 3 days, MeOH): HCl-1
Crystal Form (slurry 50 °C, 3 days, THF/H2O (9:1)): gel
Crystal Form (slurry 50 °C, 3 days, THF/n-Heptane (1:1)): HCl-1
Crystal Form (slurry 50 °C, 3 days, Toluene): HCl-1
Crystal Form (slurry 50 °C, 3 days, Water): HCl-1
Crystal Form (slurry RT, 7 days, 1,4-dioxane): HCl-2
Crystal Form (slurry RT, 7 days, ACN): HCl-2
Crystal Form (slurry RT, 7 days, Acetone/H2O (aw = 0.2)): HCl-2
Crystal Form (slurry RT, 7 days, Acetone/H2O (aw = 0.4)): HCl-2
Crystal Form (slurry RT, 7 days, Acetone/H2O (aw = 0.6)): gel
Crystal Form (slurry RT, 7 days, Acetone/H2O (aw = 0.8)): gel
Crystal Form (slurry RT, 7 days, Acetone/Toluene (1:1)): HCl-1
Crystal Form (slurry RT, 7 days, Anisole): HCl-1
Crystal Form (slurry RT, 7 days, CPME): HCl-1
Crystal Form (slurry RT, 7 days, EtOAc): HCl-1
Crystal Form (slurry RT, 7 days, H2O): CL
Crystal Form (slurry RT, 7 days, IPA): HCl-1
Crystal Form (slurry RT, 7 days, IPAc): HCl-1
Crystal Form (slurry RT, 7 days, MEK): HCl-1
Crystal Form (slurry RT, 7 days, MIBK): HCl-1
Crystal Form (slurry RT, 7 days, MTBE): HCl-1
Crystal Form (slurry RT, 7 days, MeOH): HCl-1
Crystal Form (slurry RT, 7 days, PEG): amorphous
Crystal Form (slurry RT, 7 days, THF): HCl-2
Crystal Form (slurry RT, 7 days, THF/n-Heptane (1:1)): HCl-1
Crystal Form (slurry RT, 7 days, Toluene): HCl-1
Crystal Form (solid vapor diffusion RT, 1,4-dioxane): HCl-1
Crystal Form (solid vapor diffusion RT, 2-MeTHF): HCl-1
Crystal Form (solid vapor diffusion RT, ACN): HCl-1
Crystal Form (solid vapor diffusion RT, Acetone): HCl-1
Crystal Form (solid vapor diffusion RT, DCM): CL
Crystal Form (solid vapor diffusion RT, EtOAc): HCl-1
Crystal Form (solid vapor diffusion RT, EtOH): CL
Crystal Form (solid vapor diffusion RT, Hexane): HCl-1
Crystal Form (solid vapor diffusion RT, MEK): HCl-1
Crystal Form (solid vapor diffusion RT, MTBE): HCl-1
Crystal Form (solid vapor diffusion RT, MeOH): CL
Crystal Form (solid vapor diffusion RT, Toluene): HCl-1
Crystal Form (thermal cycling, 7 days, ACN): HCl-1
Crystal Form (thermal cycling, 7 days, DMSO): HCl-1
Crystal Form (thermal cycling, 7 days, EtOH/acetone (3:7)): gel
Crystal Form (thermal cycling, 7 days, EtOH/n-Heptane (3:7)): HCl-1
Crystal Form (thermal cycling, 7 days, IPA): HCl-2
Crystal Form (thermal cycling, 7 days, IPA/Toluene (3:7)): HCl-2
Crystal Form (thermal cycling, 7 days, MeOH/IPAc (1:9)): HCl-1

Reference: US20260365611A1, “CRYSTALLINE SALTS OF 2-PHENYL-2-AMINOCYCLOHEXAN-1-ONE DERIVATIVES” (priority 2023, published 2026)
